Test results taken from paper PMC4865847, “Putative histidine kinase inhibitors with antibacterial effect against multi-drug resistant clinical isolates identified by in vitro and in silico screens” (Scientific Reports, 2016).
In brackets after ≈: the same amount, converted by molar mass. Read-outs that look alike come from different tables or passages of the source.

Tests used:
[1] = system: Staphylococcus epidermidis; test: Antibacterial susceptibility testing (MIC/MBC), S. epidermidis; format: cell-based
Procedure: (§1) Minimal inhibitory concentrations (MICs) were determined following a standard double-dilution method. […] For S. pneumoniae MICs were determined by adapting the standard double-dilution method to anaerobic conditions and of this microorganism (use of Todd Hewitt Yeast extract with 200 U/mL of catalase and continuous monitoring of growth).

[2] = Solubility in kinase buffer; format: physicochemical; conditions: kinase buffer in the presence of 10% DMSO
S. aureus PhoR (PhoR^S) = S. aureus PhoR (PhoR^S) (Staphylococcus aureus, UniProt Q2FXN7); test: In vitro autophosphorylation kinase assay with γ-32P-ATP, PhoR^S; format: biochemical
S. aureus PhoR (PhoR^S), sequence (Q2FXN7 entry or part of it): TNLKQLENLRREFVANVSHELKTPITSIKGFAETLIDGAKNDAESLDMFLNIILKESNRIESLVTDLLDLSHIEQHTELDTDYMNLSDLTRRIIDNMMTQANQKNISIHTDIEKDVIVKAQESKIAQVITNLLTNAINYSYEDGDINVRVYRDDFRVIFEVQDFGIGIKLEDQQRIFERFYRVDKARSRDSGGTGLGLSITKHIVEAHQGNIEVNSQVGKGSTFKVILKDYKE
Method in brief: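 ≈4 μM HK incubated with up to 20 mM fragment in 50 mM Tris HCl pH 8.5, 50 mM KCl, 5 mM MgCl2, 0.5 mM EDTA, 0.1 mM DTT; started with γ-32P-ATP (0.03–0.06 μM ATP final). Quenched with SDS sample buffer/EDTA, run on SDS-PAGE unheated, phosphoprotein quantified by phosphor-imaging.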

Streptococcus suis = test: Antibacterial susceptibility testing (MIC), S. suis; format: cell-based; conditions: Streptococcus suis, read-out: MIC Streptococcus suis 3881/S10, strain 3881/S10
Method in brief: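 Read-out is visible growth. The MIC is the lowest concentration without it in a standard double-dilution assay, and the MBC is the lowest concentration yielding no colonies on plating or no growth in fresh MH medium. S. pneumoniae was tested anaerobically in Todd Hewitt yeast extract containing 200 U/mL catalase.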

Staphylococcus aureus = test: Antibacterial susceptibility testing (MIC/MBC), S. aureus; format: cell-based
Procedure: as §1

Pseudomonas aeruginosa = test: Antibacterial susceptibility testing (MIC), P. aeruginosa; format: cell-based; conditions: strain ATCC 27853
Method in brief: (§2)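 Two-fold dilution series; MIC = lowest conc. with no visible growth. MBC: dilutions near MIC plated or regrown in fresh MH, lowest conc. with no colonies/no growth. S. pneumoniae: anaerobic, Todd Hewitt + yeast extract + 200 U/mL catalase, continuous growth monitoring.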

E. coli PhoR (PhoR^E) = target: T1, E. coli PhoR (PhoR^E) (Escherichia coli, UniProt P08400); test: Aggregation analysis by native-PAGE, PhoR^E; conditions: 2 mM (S5 and S6 5 mM), 10% DMSO
T1 construct: The catalytic portion (DHp and CA domain) of E. coli PhoR (PhoR^E); made in house; host or cells: E. coli RIL
T1 sequence (P08400 210-425): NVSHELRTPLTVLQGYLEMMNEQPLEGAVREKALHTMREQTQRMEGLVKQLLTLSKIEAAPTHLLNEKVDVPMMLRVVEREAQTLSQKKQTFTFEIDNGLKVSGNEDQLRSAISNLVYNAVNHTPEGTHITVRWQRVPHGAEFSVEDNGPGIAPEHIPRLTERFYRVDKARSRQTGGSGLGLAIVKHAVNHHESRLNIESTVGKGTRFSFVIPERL
Procedure: E. coli PhoR and EnvZ, and S. aureus PhoR ([…], final concentration) were prepared in kinase buffer. […] DMSO in the assays was maintained to a final concentration 10% (v/v). After 30 min of incubation at room temperature Native polyacrylamide gel electrophoresis (Native-PAGE) loading buffer was added and samples loaded. Coomassie blue staining was used for protein visualization.

[3] = system: Stenotrophomonas maltophilia; test: Antibacterial susceptibility testing (MIC), S. maltophilia; format: cell-based
Method in brief: as §2

Escherichia coli = test: Antibacterial susceptibility testing (MIC/MBC), E. coli; format: cell-based; conditions: Escherichia coli
Procedure: as §1

Hemolysis assay = format: cell-based; conditions: human
Procedure: Hemolytic activity against human erythrocytes taken from a healthy donor was measured as previously described. The hemolysis experiments were carried out in accordance with the guidelines of the United Arab Emirates University (UAEU) Research Ethics Review Board. All experimental protocols were approved by the Research Ethics Review Board of UAEU and informed consent was obtained from all donors.

Streptococcus pneumoniae = test: Antibacterial susceptibility testing (MIC), S. pneumoniae; format: cell-based; conditions: strain 49619
Procedure: Bacterial strains used in this study for antibacterial susceptibility testing (Table S5) were propagated using standard microbiological procedures. Minimal inhibitory concentrations (MICs) were determined following a standard double-dilution method. MICs were recorded as the lowest concentration of the compound where no visible growth was observed. After plating the dilutions around the MIC or growing them in fresh MH media, minimal bactericidal concentration (MBC) was recorded as the lowest concentration of the compound at which no colonies were formed or no growth was observed, respectively. For S. pneumoniae MICs were determined by adapting the standard double-dilution method to anaerobic conditions and of this microorganism (use of Todd Hewitt Yeast extract with 200 U/mL of catalase and continuous monitoring of growth).

Acinetobacter baumannii = test: Antibacterial susceptibility testing (MIC), A. baumannii; format: cell-based
Method in brief: as §2

SMILES: CC[C@H](c1ccc(O)cc1)[C@@H](CC)c1ccc(F)cc1 [S1.13, 4-[(3S,4R)-4-(4-fluorophenyl)hexan-3-yl]phenol]
- MBC ([1]; Staphylococcus epidermidis, DSM20044, strain DSM 20044): 8 µg/mL (≈ 29.4 µM)
- MIC ([1]; Staphylococcus epidermidis, DSM20044, strain DSM 20044, read-out: MIC S. epidermidis DSM 20044): 1 µg/mL (≈ 3.67 µM)
- MIC ([1]; Staphylococcus epidermidis, clinical isolate T7/3, read-out: MIC S. epidermidis T7/3): 8 µg/mL (≈ 29.4 µM)
- MIC ([1]; Staphylococcus epidermidis, clinical isolate T37/8, read-out: MIC S. epidermidis T37/8): 16 µg/mL (≈ 58.7 µM)
- MIC ([1]; Staphylococcus epidermidis, clinical isolate T6119, read-out: MIC S. epidermidis T6119): 8 µg/mL (≈ 29.4 µM)
- MIC ([1]; Staphylococcus epidermidis, strain RP62A (biofilm producer), read-out: MIC S. epidermidis RP62A): 8 µg/mL (≈ 29.4 µM)
- MIC ([1]; Staphylococcus epidermidis, strain RP62A/1 (non-biofilm producer), read-out: MIC S. epidermidis RP62A/1): 8 µg/mL (≈ 29.4 µM)
- MIC ([1]; Staphylococcus epidermidis, summary over clinical isolates, read-out: MICs for S. epidermidis clinical isolates): 8 to 16 µg/mL (≈ 29.4 to 58.7 µM)
- MIC S. epidermidis DSM 20044 ([1]; strain DSM 20044): 1^¥ μg/ml
- bacteriostatic or bactericidal for S. epidermidis DSM 20044 ([1]; strain DSM 20044): bactericidal
- solubility in kinase buffer [2]: good solubility
- IC50 (S. aureus PhoR (PhoR^S); IC50 PhoR^S, autophosphorylation, one time point (30 sec), 10% DMSO): 212 µM
- inhibition at 2000 µM (S. aureus PhoR (PhoR^S); read-out: inhibition of PhoR^S autophosphorylation): > 75%
- MIC (Streptococcus suis): 8 µg/mL (≈ 29.4 µM)
- MIC (Staphylococcus aureus; Staphylococcus aureus, ATCC reference strain 25293, read-out: MIC S. aureus 25293): 8 µg/mL (≈ 29.4 µM)
- MBC (Staphylococcus aureus; Staphylococcus aureus, DSM20231, strain DSM 20231, read-out: MBC S. aureus DSM 20231): 33 µg/mL (≈ 121 µM)
- MIC (Staphylococcus aureus; Staphylococcus aureus, DSM20231, strain DSM 20231, read-out: MIC S. aureus DSM 20231): 8 µg/mL (≈ 29.4 µM)
- MIC (Staphylococcus aureus; Staphylococcus aureus, MRSA clinical isolate 127/08, read-out: MIC S. aureus 127/08): 16 µg/mL (≈ 58.7 µM)
- MIC (Staphylococcus aureus; Staphylococcus aureus, MRSA clinical isolate 145/08, read-out: MIC S. aureus 145/08): 8 µg/mL (≈ 29.4 µM)
- MIC (Staphylococcus aureus; Staphylococcus aureus, MRSA clinical isolate 274/08, read-out: MIC S. aureus 274/08): 16 µg/mL (≈ 58.7 µM)
- MIC (Staphylococcus aureus; Staphylococcus aureus, MRSA, MRSA clinical isolate S908, read-out: MIC S. aureus S908): 16 µg/mL (≈ 58.7 µM)
- MIC (Staphylococcus aureus; Staphylococcus aureus, MRSA, MRSA clinical isolate T4/6, read-out: MIC S. aureus T4/6): 8 µg/mL (≈ 29.4 µM)
- MIC (Staphylococcus aureus; Staphylococcus aureus, MRSA, MRSA clinical isolate V4180, read-out: MIC S. aureus V4180): 8 µg/mL (≈ 29.4 µM)
- MIC (Staphylococcus aureus; Staphylococcus aureus, MRSA, summary over strains, read-out: MICs for the S. aureus reference strains and the MRSA strains): 8 to 16 µg/mL (≈ 29.4 to 58.7 µM)
- MIC (Staphylococcus aureus; Staphylococcus aureus, MRSA, summary over susceptible MRSA clinical isolates, read-out: MICs for MRSA strains): 8 to 16 µg/mL (≈ 29.4 to 58.7 µM)
- MBC S. aureus DSM 20231 (Staphylococcus aureus; strain DSM 20231): 31 µg/mL (≈ 114 µM)
- MIC S. aureus DSM 20231 (Staphylococcus aureus; strain DSM 20231): 8^¥ μg/ml
- bacteriostatic or bactericidal for S. aureus DSM 20231 (Staphylococcus aureus; strain DSM 20231): bactericidal
- MIC (Pseudomonas aeruginosa; Pseudomonas aeruginosa, ATCC27853): > 500 µg/mL
- MIC P. aeruginosa ATCC 27853 (Pseudomonas aeruginosa): >500 µg/mL
- HK aggregation, PhoR^E (E. coli PhoR (PhoR^E)): do not cause HK aggregation
- MIC ([3]; clinical isolate B5/5, read-out: MIC S. maltophilia B5/5): > 500 µg/mL
- MIC ([3]; clinical isolate B6/2, read-out: MIC S. maltophilia B6/2): > 500 µg/mL
- MIC ([3]; clinical isolate B32/1, read-out: MIC S. maltophilia B32/1): > 500 µg/mL
- MIC (Escherichia coli; ATCC25276, strain ATCC 25276, read-out: MIC E. coli ATCC 25276): > 500 µg/mL
- MIC (Escherichia coli; strain CFT 073, read-out: MIC E. coli CFT 073): > 500 µg/mL
- HC50 (Hemolysis assay): 277 µg/mL
- MIC (Streptococcus pneumoniae): 16 µg/mL (≈ 58.7 µM)
- MIC (Acinetobacter baumannii; MDR clinical isolate NM8, read-out: MIC A. baumannii NM8): > 500 µg/mL
- MIC (Acinetobacter baumannii; MDR clinical isolate NM35, read-out: MIC A. baumannii NM35): > 500 µg/mL
- MIC (Acinetobacter baumannii; MDR clinical isolate NM75, read-out: MIC A. baumannii NM75): > 500 µg/mL
- MIC (Acinetobacter baumannii; MDR clinical isolate NM109, read-out: MIC A. baumannii NM109): > 500 µg/mL
- MIC (Acinetobacter baumannii; MDR clinical isolate NM124, read-out: MIC A. baumannii NM124): > 500 µg/mL
